# From patent publication US20050215641A1, “Compositions comprising reverse isomers of conjugated linoleic acid” (priority 2004, published 2005)
# Marks after values point to notes of the source that are not given here.
# Tests used:
# [1] = Peroxide values (PV) by ferric thiocyanate method after storage; assay type: physicochemical; conditions: after storage in open glass
# From the text: The present invention also contemplates stabilization of the c10,t12, c10,c12, t9,c11 and/or c9,c11 compositions by preventing oxidation of the compounds. The present invention is not limited to any one mechanism. Indeed, an understanding of the mechanism of the invention is not necessary to produce the composition or perform the methods of the present invention. […] After storage in open glass, the PV of CLA was 32; in comparison, the value for linoleic acid was 370.
# [2] = system: lactating Holstein cows; assay: Milk fat depression model, abomasal infusion of CLA supplements, 4x4 Latin square (Example 4); assay type: in vivo; conditions: for inhibitory effects on lipid synthesis: milk fat depression model, general statement; for Milk fat yield reduced / Milk fat % / Milk fat kg/d: 5 g/d of isomer of interest; for Milk fat yield reduced: 5 d; for Milk fat yield reduced / transfer efficiency of specific CLA isomers within respective treatment groups: P<0.001; for Milk fat % / Milk fat kg/d: average of day 4 and 5 of supplementation; for transfer efficiency of specific CLA isomers within respective treatment groups: abomasal infusion 5 g/d
# From the text: Four rumen-fistulated lactating Holstein cows (149±18 DIM) were randomly assigned in a 4×4 Latin square experiment. Treatments were abomasal infusions of 1) ethanol (control), 2) trans-10, cis-12 CLA supplement (positive control), 3) trans-9, trans-11 CLA supplement, and 4) trans-9, cis-11 CLA supplement. The trans-10, cis-12 and trans-9, trans-11 CLA supplements were of high purity (>90%), whereas the trans-9, cis-11 CLA supplement consisted mainly of 3 CLA isomers: trans-9, cis-11 (32%), cis-9, trans-11 (29%) and trans-9, trans-11 (17%). CLA supplements supplied 5 g/d of the CLA isomer of interest and the daily dose was provided by infusion at 6 h intervals. Treatment periods were 5 d in length with a 7 d washout interval. Milk yield and DMI were unaffected by treatment (P>0.05). Milk fat yield was reduced 27% by the trans-10, cis-12 CLA treatment and 15% by the trans-9, cis-11 CLA treatment, while the trans-9, trans-11 CLA treatment had no effect (P<0.001). Milk protein content and yield were reduced by the trans-9, trans-11 CLA treatment only (P<0.01). The transfer efficiency of specific CLA isomers within respective treatment groups was 22% for trans-10, cis-12 CLA, 21% for trans-9, trans-11 CLA and 46% for trans-9, cis-11 CLA (P<0.001). […] The data are summarized in Tables 4 and 5 and FIGS. 3 and 4.
# [3] = system: cows; assay: Milk fat depression model, continuous abomasal infusion of CLA isomer emulsions (Example 3); assay type: in vivo; conditions: for Yield Fat / Concentration Fat: abomasal infusion of emulsion, 1 g/L CLA, over four days; for Yield Fat: mean treatment effects; for Concentration Fat: milk; for inhibitory effects on lipid synthesis: milk fat depression model, general statement
# Method: When CLA is prepared with alkaline isomerization of linoleic acid, the isomers t10,c12 and c9,t11 are formed. Further, trans, trans isomers of 9,11 and 10,12 can be formed catalytically at high temperatures, as well as t8,c10 and c11,t13. […] This example describes, for the first time, a biological effect of the c10,t12 isomer of CLA.
# Emulsions of three different isomer preparations (see Table 2; t10,c12; t10,t12; and a mixture of t10, c12; c10,t12 and t10,t12 isomers; prepared as described in Example 1) were prepared essentially the same way as described by Chouinard, et al., J. Nutr. 129:1579 [1999]. The concentration of CLA in these emulsions was 1 g/L and the emulsions were administered continuously to cows at the rate of 3 1/24 h over four days as described by Chouinard, et al., J. Nutr. 129:1579 [1999]. Briefly, the emulsions were continuously infused into the abomasum via infusion lines that pass through the rumen cannula and omasal canal and peristaltic pumps. Milk was sampled daily and concentration of milk fat was determined by infrared analysis using Milko-Scan 133B analyser (Foss Electric, Hillerød, Denmark). […] Table 3 presents the mean treatment effects on intake and milk production.
smiles,measurement,setting,value
CCCCC/C=C\C/C=C\CCCCCCCC(=O)O [linoleic acid],peroxide values (PV),[1],370
"CCCCCC/C=C\C=C\CCCCCCCC(=O)O [t9,c11, t9,c11 octadecadienoate]",inhibitory effects on lipid synthesis,[2],strong inhibitory effects
"CCCCC/C=C/C=C/CCCCCCCCC(=O)O [t10, t12, t10,t12 CLA]",Yield Fat,[3],694^a g/day
same,Concentration Fat,[3],7.2^a g/kg
same,effect on the concentration of milk fat,[3]; purified form,did not have any effect
"CCCCCC/C=C\C=C/CCCCCCCC(=O)O [c9,c11]",inhibitory effects on lipid synthesis,[2],strong inhibitory effects
"CCCCC/C=C/C=C\CCCCCCCCC(=O)O [c10,t12, c10,t12 octadecadienoic acid]",inhibitor of lipid synthesis,"[3]; concluded from the effect of the isomer mixture versus purified t10,c12","stronger inhibitor of lipid synthesis than t10,c12"
same,inhibitory effects on lipid synthesis,[3],strong inhibitory effects
"CCCCCC/C=C/C=C/CCCCCCCC(=O)O [t9, t11 CLA]",Milk fat yield reduced,[2],no effect
same,Milk fat %,[2],4.03^a %
same,Milk fat kg/d,[2],0.770^a kg/d
same,transfer efficiency of specific CLA isomers within respective treatment groups,[2],21%
"CCCCC/C=C\C=C/CCCCCCCCC(=O)O [c10,c12, c10,c12 octadecadienoic acid]",inhibitory effects on lipid synthesis,[3],strong inhibitory effects
"CCCCC/C=C\C=C\CCCCCCCCC(=O)O [t10, c12, t10,c12 octadecadienoic acid]",Yield Fat,[3],573^ab g/day
same,Concentration Fat,[3],29.1^b g/kg
same,Milk fat yield reduced,[2],27%
same,Milk fat %,[2],2.54^d %
same,Milk fat kg/d,[2],0.541^c kg/d
same,transfer efficiency of specific CLA isomers within respective treatment groups,[2],22%
